The values that follow come from patent US9017963B2, “Method for detecting microorganisms” (Woundchek Laboratories (US), Inc., priority 2002, dated 2015).

Primed or numbered codes have the meaning given here. No end group written: not given here. *: point of attachment. Dabcyl″ = label, CN(C)c1ccc(/N=N/c2ccc(C(=O)*)cc2)cc1; EDANS = O=S(=O)(O)c1cccc2c(NCCN*)cccc12; Dabcyl′ = not defined here; pyrene = label

The subject of data set [1] is Staphylococcus epidermidis. In words: Glass microfiber filter biosensor, S. epidermidis culture. Format: biochemical. As to conditions: Quadrant #2, S. epidermidis; 37° C., 30 minutes. On the procedure:
(§1) An example of a biosensor for the detection of an enzyme secreted by Staphylococcus epidermidis (S. epidermidis), and therefore, for the detection of Staphylococcus epidermidis now follows. A […] solution of 20 mM p-nitrophenyl Caprate (in ispropanol) was applied to a 2.5 cm glass microfiber filter (Whatman GF/A). The isopropanol was allowed to evaporate at room temperature for 30 minutes, leaving the substrate bound to the filter. After the filter was completely dry, a single drop of bacterial culture was applied to each quadrant of the filter. In Quadrant #1, Staphylococcus aureus was applied; in Quadrant #2, Staphylococcus epidermidis was applied; in Quadrant #3 Streptococcus salivarius was applied, and in Quadrant #4, media was applied as a control. The filter was incubated at 37° C. for 30 minutes, and detection of a yellow dye, indicating modification of the substrate by an enzyme in the bacteria was detected.

The test system of the next data set is lipase from S. aureus. The data set can be described thus: Lipase assay, S. aureus culture supernatant. Format: biochemical, Staphylococcus aureus. As to conditions: 20 mM Tris (pH 8.5), 37° C., 60 minutes. As to the method:
(§2) A culture of each of the following bacterial species was grown to saturation in Brain Heart Infusion (BHI) broth at 37° C. with vigorous shaking (˜200 rpm), using methods that are standard in the art: Staphylococcus aureus; Staphylococcus epidermidis; Serratia marcescens; Streptococcus salivarius; Escherichia coli; Pseudomonas aeruginosa; and Enterococcus faecalis. After overnight growth (to saturation), a 1 mL sample of each culture was obtained, and the cells were removed from the culture supernatant by centrifugation at 12,000×g for 5 minutes. The remaining culture supernatants were stored on ice until required (less than one hour). The bacteria were assayed for the presence or absence of specific enzymes as described below. Alternatively, the bacterial cells are not separated from the culture supernatant, but rather, the assay is carried out on a sample containing the cells still in suspension in their culture broth.
To test for the presence or absence of lipases secreted by bacteria, the lipase substrate p-nitrophenyl caprate, obtained from Sigma (Catalog No.: N-0252). This lipase substrate consists of capric acid, a ten-carbon lipid molecule, esterified with the dye para nitrophenol (detectable label) as described above. The substrate was dissolved in isopropyl alcohol at a concentration of 8 mM (2.35 mg/mL). A reaction buffer containing 20 mM Tris (pH 8.5) was also prepared.
To perform the lipase assay, 80 μL of reaction buffer, 10 μL of culture supernatant from each bacteria species described in Example 2, and 10 μL of assay substrate were added to a well of a 96-well microplate. Each bacterial species was assayed individually, and the assays were performed in triplicate. The 96-well plate was incubated at 37° C. for 60 minutes. At 5 minute intervals during the incubation period, absorbance at 415 nm, indicating modification of the enzyme by a lipase secreted by the cells, was automatically measured using a BioRad Benchmark Microplate reader.
However, it is known that bacterial lipases do show strong substrate specificity with regard to the chain length of the fatty acid they hydrolyze (Van Kampen et al., BBA, 1544: 229, 2001) and to the location in a lipid layer. The degree that the environment of the substrate affects the efficiency of hydrolysis depends on the particular enzyme. To test this for the lipase from S. aureus, the above-described lipase assay was performed in the presence of several detergent and solvent additives. The reaction buffer consisted of 20 mM Tris (pH 8.3) with 1 mM ZnSO4 added, plus either nothing additional (control), 20% methanol, 20% DMSO, or 10 mM Triton X-100.

The subject of data set [2] is lipases secreted by bacteria (Staphylococcus epidermidis). In words: Lipase assay, S. epidermidis culture supernatant. Format: biochemical. As to conditions: 20 mM Tris (pH 8.5), 37° C., 60 minutes. On the procedure:
as §2, with “broth. […]” for “broth.”
(§3) To perform the lipase assay, 80 μL of reaction buffer, 10 μL of culture supernatant from each bacteria species described in Example 2, and 10 μL of assay substrate were added to a well of a 96-well microplate. […] At 5 minute intervals during the incubation period, absorbance at 415 nm, indicating modification of the enzyme by a lipase secreted by the cells, was automatically measured using a BioRad Benchmark Microplate reader.

A further data set deals with Staphylococcus aureus. In words: Glass microfiber filter biosensor, S. aureus culture. Format: biochemical. As to conditions: Quadrant #1, S. aureus; 37° C., 30 minutes. As to the method:
as §1

The test system of data set [3] is Serratia marcescens, Streptococcus salivarius, Escherichia coli, Pseudomonas aeruginosa, Enterococcus faecalis supernatants. In words: Lipase assay, other bacterial supernatants. Format: biochemical. As to conditions: other bacterial samples; 20 mM Tris (pH 8.5); 37° C., 60 minutes. As to the method: as §2, with “broth. […]” for “broth.”
as §3

The next data set concerns Streptococcus salivarius. The data set can be described thus: Glass microfiber filter biosensor, S. salivarius culture. Format: biochemical. As to conditions: Quadrant #3, S. salivarius; 37° C., 30 minutes. On the procedure:
as §1

A further data set has as its system P. aeruginosa protease. The data set can be described thus: Protease assay on porcine wound fluid. As to conditions: porcine wounds infected with 10^3, 10^4 or 10^5 bacteria, 3 days; 1 hour reaction; FIG. 18. Format: biochemical, Pseudomonas aeruginosa. On the procedure:
In order to test for the presence of enzymatic activity in a wound bacterial protease assay for detection of P. aeruginosa was performed on samples obtained from wound infections made in pigs. […] Each of the resulting cultures was diluted into sodium phosphate buffer at pH 7.2 with 150 mM NaCl (PBS buffer) to give samples containing 10^5, 10^4, and 10^3 bacteria total in 100 μL. Immediately after surgery to create a series of partial thickness wounds was performed on the pigs, the wound surfaces were treated with calcium chloride solution for a short period and then patted dry. A buffer solution containing diluted bacterial cultures was placed on the surface of the wounds. The wounds were then covered and the infections were allowed to grow for a period of 3 days. After the dressing was removed from the pigs and the wounds were scored for degree of inflammation, 100 μL of PBS buffer was added to the wound surface and the extracted wound fluid was recovered by pipet. Each of the samples was split in half and 50 μL were used to inoculate BHI plates and the other 50 μL were placed in plastic tubes and immediately frozen at −80° C.
The buffer used to dilute the wound fluid in the protease assays was PBS. […] The reaction was followed on a fluorimetric plate reader using an excitation wavelength of 355 nm and an emission wavelength of 528 nm.

Data set [4] has as its system Pseudomonas aeruginosa protease. The data set can be described thus: Protease assay for P. aeruginosa (strains P1, PA14, ZK45 supernatants). Format: biochemical. As to conditions: 20 mM tris (pH 7.5), 150 mM NaCl, 37° C. From the text: The peptide substrates used here were labeled with the fluorescent probe edans (5-((2-aminoethyl)amino)naphthalene-1-sulfonic acid) and the quencher dye molecule dabcyl ((4-(4-(dimethylamino)phenyl)azo)benzoic acid). The labeled peptide sequences used were as follows: […]

Data set [5] deals with DNA metabolism enzymes (exonuclease and endonuclease) in bacterial supernatants. The data set can be described thus: Fluorescent DNA probe assay for DNA metabolism activity. Format: biochemical. As to conditions: supernatants of eight bacteria; excitation 485 nm, emission 538 nm; 37° C. As to the method:
Another method for detecting DNA metabolism activity is to generate synthetic colorimetric and fluorescent DNA probes that can indicate DNA hydrolysis (exonuclease and endonuclease activity). The method was carried out as follows. Two complementary oligonucleotides were generated. One oligonucleotide was labeled with self-quenching fluorescent labels, while the other primer remained unlabeled. The sequences of the oligonucleotides were as follows: Unlabeled Sequence 5′-[…]-3 (SEQ ID NO: 6); and Labeled Sequence FL-5′-[…]-3′-FL (SEQ ID NO: 7). […] The culture was spun down by centrifugation and the supernatant was collected. The fluorescent labeled primer and its unlabeled complement were dissolved in water at a concentration of approximately 1 mg/mL. The primers were heated to melting temperature for 2 minutes at 92° C., then allowed to anneal for 5 minutes at 43° C. After annealing, the DNA substrate was added to the reaction buffer (20 mM tris (pH 7.4) with 150 mM NaCl) and incubated at 37° C. for 10 minutes. The reaction was carried out with 7 μL of culture supernatant and 3 μL of DNA substrate in 100 μL total volume at 37° C. The reaction was followed using a fluorimetric plate reader using an excitation wavelength of 485 nm and an emission wavelength of 538 nm. […]

In another data set the test system is Pseudomonas. The data set can be described thus: Peptide on positively charged membrane exposed to Pseudomonas culture medium. Format: biochemical. As to conditions: FIG. 17C. The text has this:
Electrostatic interactions make use of the charges on the peptide or chromophore to bind it to a surface to make a biosensor. For example, ion exchange membranes with a strong negative (ICE450) or positive (SB-6407) charge are available from Pall Gelman Laboratory, Ann Arbor, Mich. It is possible to bind the peptide substrates through interactions with their charged groups. The peptide substrate papa2, as described herein, was spotted onto a positively charged membrane and exposed to Pseudomonas culture medium.

In the next data set the test system is Pseudomonas protease. In words: Protease assay with modified version of papa1, bacterial supernatants. Format: biochemical, Pseudomonas aeruginosa. As to conditions: supernatants of eight bacteria; excitation 355 nm, emission 485 nm; FIG. 17A. On the procedure:
The protease assay described herein for detection of P. aeruginosa was run with the modified version of papa1. […] Each of the resulting cultures was spun down by centrifugation and the supernatant was collected. The assays were run in 20 mM tris buffer (pH 7.4) with 150 mM NaCl added. The reaction was carried out with 7 μL of supernatant and 3 μL of peptide substrate (5 mg/mL in water) in 100 μL total volume at 37° C. The reaction was followed on a fluorimetric plate reader using an excitation wavelength of 355 nm and an emission wavelength of 485 nm.

For data set [6], the system named is surface of Staphylococcus. In words: Binding of fluorescent peptide to the surface of Staphylococcus. As to conditions: predicted. The text has this:
Substrates for use in the present invention include any molecule, either synthetic or naturally-occurring that can interact with an enzyme of the present invention. Examples of substrates include those substrates described herein, as well as substrates for these enzymes that are known in the art. […] Such substrates described herein can be obtained from commercial sources, e.g., Sigma (St. Louis, Mo.), or can be produced, e.g., isolated or purified, or synthesized using methods known to those of skill in the art.

For the compound `CCCCCCCCCC(=O)Oc1ccc([N+](=O)[O-])cc1` [p-nitrophenyl caprate], the “modification of labeled substrate on filter (yellow dye)” value is “Modification of the labeled substrate was detected” in data set [1], “no modification of the labeled substrate was detected” in the data set on Staphylococcus aureus and “no modification of the labeled substrate was detected” in the data set with Streptococcus salivarius. In addition, the “color change (absorbance at 415 nm)” value in the data set on lipase from S. aureus was “showed a dramatic color change”; in data set [2] it was “showed a dramatic color change”; in data set [3] it was “showed no color change”.
Take “Edans - KAAHKSALKSAE - Dabcyl (Edans-KAAHKSALKSAE-{Dabcyl′}) [papa1, labeled peptide substrate of Pseudomonas aeruginosa, origin PepA]”: the “detection of P. aeruginosa in extracted wound fluid (relative fluorescence)” value with P. aeruginosa protease was “samples containing P. aeruginosa were detectable”. For the same compound, in data set [4], the “enzymatic cleavage of peptide substrate (relative fluorescent intensity)” value was “cleaved”.
Consider “FL-5′-AGGAATTCAGTGGATCCTCGAGAGG-3′-FL (antisense CCTCTCGAGGATCCACTGAATTCCT; sense: DNA, backbone not given here; antisense: DNA, backbone and methylation of C not given here; further chemistry not fully specified) [labeled DNA probe]”, for which, in data set [5], the “DNA metabolic activity (relative fluorescence of labeled probe)” value is reported as “detected specific DNA metabolic activity associated with Enterococcus”.
“KKAS(E-edans)AAHKSALKSAE(K-dabcyl) (KKASE(EDANS)AAHKSALKSAEK(Dabcyl″)) [papa2, papa1 version with two lysine groups as tag for surface attachment]”: in the data set with Pseudomonas, the “fluorescence upon cleavage on membrane” value is on record as “upon cleavage of the peptide yellow fluorescence”. The “cleavage of protease substrate (relative fluorescence), comparison of species” value in the data set with Pseudomonas protease is on record as “greatest fluorescence in the sample containing Pseudomonas”.
Take “PGTKLYTVPW-pyrene [Alt derived fluorescent peptide]”: the “change in fluorescence upon binding” value in data set [6] is recorded as “increase in fluorescence upon binding”.
